From US9593096B2, “α7 nicotinic acetylcholine receptor modulators and uses thereof-III” (Merck Sharp & Dohme Corp., priority 2013, dated 2017)

What was measured:
rat α7 nAChRs = target: T1, rat α7 nAChRs (Rattus norvegicus, UniProt Q05941); assay: Automated planar patch clamp (Patchliner) for α7 nAChR positive allosteric modulation; format: cell-based; set-up: key to Type I or Type II: I: Type 1 predominately affects the peak current; Type II modulators affect the peak current and also delay the desensitization of the receptor; settings: for activation at 3 µM: GH4-C1, 3 μM compound in the presence of acetylcholine, GH4C1 cells expressing rat α7 nAChRs, relative to control ACh response, read-out: Peak potentiation at 3 μM compound; for Type I or Type II: modulator type based on the electrophysiology trace
T1 construct: expressed in transfected cells; host or cells: GH4C1 (rat pituitary cell line) stably expressing α7 nAChR
T1 sequence (Q05941 23-502): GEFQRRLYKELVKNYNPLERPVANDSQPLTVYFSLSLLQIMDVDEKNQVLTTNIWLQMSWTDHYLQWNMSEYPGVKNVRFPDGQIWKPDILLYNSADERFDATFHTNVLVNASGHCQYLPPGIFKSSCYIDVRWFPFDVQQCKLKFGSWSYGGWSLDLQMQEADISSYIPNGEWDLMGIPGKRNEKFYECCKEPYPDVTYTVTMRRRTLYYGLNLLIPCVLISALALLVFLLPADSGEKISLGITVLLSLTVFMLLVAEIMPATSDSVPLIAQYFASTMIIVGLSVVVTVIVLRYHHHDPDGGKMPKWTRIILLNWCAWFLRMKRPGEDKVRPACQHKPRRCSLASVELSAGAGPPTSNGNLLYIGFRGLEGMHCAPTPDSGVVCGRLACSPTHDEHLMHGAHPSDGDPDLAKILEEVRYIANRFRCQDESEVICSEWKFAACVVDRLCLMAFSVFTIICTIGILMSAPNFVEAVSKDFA
Protocol: Compounds of the invention may be evaluated by electrophysiology using a Patchliner® (Nanion Technologies GmbH, Germany), an automated planar patch-clamp platform of medium throughput was used as a first step in electrophysiological assessment of α7 nAChR positive allosteric modulators (PAMs).
Briefly, intracellular (KCl—50 mM, NaCl—10 mM, KF—60 mM, EGTA—20 mM, HEPES—10 mM, pH—7.2, 285 mOsmol) and extracellular (NaCl—140 mM, KCl—4 mM, CaCl2-2 mM, MgCl2—1 mM, HEPES—10 mM, D-Glucose—5 mM, pH—7.4, 298 mOsmol) solutions were automatically pipetted onto NPC-16 chip (medium resistance ˜2.5-2.6 MΩ). Suspension of GH4C1 cells expressing rat α7 nAChRs was introduced in 4 wells of a medium resistance chip and suction was applied to attract cells in the holes. The extracellular solution was subsequently exchanged to high calcium solution (NaCl—80 mM, KCl—3 mM, CaCl2—45 mM, HEPES—10 mM, pH—7.4, 298 mOsmol) followed by gigaohm seal formation and obtaining whole-cell configuration. The rest of protocol was carried out in the high-calcium recording solution. Holding potential was −70 mV throughout the protocol. A control response to 60 or 100 μM of ACh was obtained first. Next, a cell was pre-incubated with compound of interest at 3 μM for ˜30 s after which the compound was co-applied with acetylcholine.
Amplitude of the responses was measured in HEKA Patchmaster software (HEKA Elektronik, Germany) and percentage of potentiation calculated. Recording was repeated […] a minimum of two replicates had been obtained per compound.
Compounds shown in Table 1 were evaluated by automated planar patch clamp on the Patchliner® as described in Example P2.1. […] The compounds are designated either as Type I or Type II modulators based on the electrophysiology trace. Type 1 predominately affects the peak current. Type II modulators affect the peak current and also delay the desensitization of the receptor.

mice = assay: T-maze Continuous Alternation Task (T-CAT), scopolamine-induced cognitive impairment; format: in vivo; settings: mouse, dosed orally at 10 mg/kg, scopolamine-induced disruption of spontaneous alternation
Text: The T-maze Continuous Alternation Task (T-CAT) measures spontaneous alternation, which is the innate tendency of mice to alternate free choices in a T-maze over a series of successive runs. This sequential procedure relies on working memory and is sensitive to various pharmacological manipulations affecting memory processes.
The T-maze apparatus is made of gray Plexiglas with a main stem (55 cm long×10 cm wide×25 cm high) and two arms (30 cm long×10 cm wide×25 cm high) positioned at 90 degree angle relative to the main stem. A start box (15 cm long×10 cm wide) is separated from the main stem by a sliding door. Sliding doors are also provided to close specific arms during the forced-choice alternation task.
The experimental protocol consists of one single session, which starts with 1 “forced-choice” trial, followed by 14 “free-choice” trials. In the first “forced-choice” trial, the animal is confined for 5 s in the start arm and then it is released while either the left or right goal arm is blocked by a sliding door. The animal will negotiate the maze, eventually enter the open goal arm, and return to the start position. Immediately after the return to the start position, the left or right goal door is opened and the animal is allowed to choose freely between the left and right goal arm (“free choice” trials). The animal is considered to have entered an arm when it places four paws in the arm. A session is terminated and the animal is removed from the maze as soon as 14 free-choice trials have been performed or 10 minutes have elapsed, whichever event occurs first. The percentage of alternation over the 14 free-choice trials is determined for each mouse and is used as an index of working memory performance. This percentage is defined as entry in a different arm of the T-maze over successive visits (i.e., left-right-left-right, etc).
Scopolamine administered 20 minutes prior the initiation of the T-maze session is used to induce disruption in the spontaneous alternation of mice. Test compounds are administered 60 minutes prior the start of the T-maze session in order to evaluate their ability to reverse the scopolamine effect.
The apparatus is cleaned between each animal using alcohol (70°). Urine and faeces are removed from the maze. During the trials, animal handling and the visibility of the operator are minimized as much as possible.
The compounds were dosed orally at 10 mg/kg.

Row | SMILES | activation at 3 µM (rat α7 nAChRs) | Type I or Type II (rat α7 nAChRs) | T-maze % control at 10 mg/kg (mice)
1 | Cn1cc(C(=O)Nc2cncc(F)c2)c2cc(C(F)(F)F)ccc21 [Example 10, N-(5-fluoropyridin-3-yl)-1-methyl-5-(trifluoromethyl)-1H-indole-3-carboxamide] | 41% | I | –
2 | Cn1cc(C(=O)Nc2ccnc(C(F)(F)F)c2)c2cc(C(F)(F)F)ccc21 [Example 9, 1-methyl-5-(trifluoromethyl)-N-[2-(trifluoromethyl)pyridin-4-yl]-1H-indole-3-carboxamide] | 83% | I | –
3 | CCn1cc(C(=O)Nc2ccc(C(F)(F)F)nc2)c2cc(F)ccc21 [Example 3, 1-ethyl-5-fluoro-N-[6-(trifluoromethyl)pyridin-3-yl]-1H-indole-3-carboxamide] | – | – | 73%
4 | CC(C)n1cc(C(=O)Nc2cncc(F)c2)c2cc(F)ccc21 [Example 6, 5-fluoro-N-(5-fluoropyridin-3-yl)-1-(propan-2-yl)-1H-indole-3-carboxamide] | 374% | I | –
5 | CCn1cc(C(=O)Nc2cncc(F)c2)c2cc(F)ccc21 [Example 1, 1-ethyl-5-fluoro-N-(5-fluoropyridin-3-yl)-1H-indole-3-carboxamide] | – | I | 70%
6 | Cn1cc(-c2ccc3c(c2)c(C(=O)Nc2ccnc(C(F)(F)F)c2)cn3C)cn1 [Example 11, 1-methyl-5-(1-methyl-1H-pyrazol-4-yl)-N-[2-(trifluoromethyl)pyridin-4-yl]-1H-indole-3-carboxamide] | 78% | I | –
7 | CCn1cc(C(=O)Nc2cc(C(F)(F)F)ncn2)c2cc(F)ccc21 [Example 2, 1-ethyl-5-fluoro-N-[6-(trifluoromethyl)pyrimidin-4-yl]-1H-indole-3-carboxamide] | – | I | 76%
8 | Cn1cc(C(=O)Nc2ccnc(C(F)(F)F)c2)c2cc(F)ccc21 [Example 5, 5-fluoro-1-methyl-N-[2-(trifluoromethyl)pyridin-4-yl]-1H-indole-3-carboxamide] | 326% | I | 78%
9 | Cc1ccc2c(c1)c(C(=O)Nc1ccnc(C(F)(F)F)c1)cn2C [Example 7, 1,5-dimethyl-N-[2-(trifluoromethyl)pyridin-4-yl]-1H-indole-3-carboxamide] | 663% | I | 80%
10 | Cc1ccc2c(c1)c(C(=O)Nc1cc(C(F)(F)F)ncn1)cn2C [Example 8, 1,5-dimethyl-N-[6-(trifluoromethyl)pyrimidin-4-yl]-1H-indole-3-carboxamide] | 428% | I | –
11 | O=C(Nc1ccnc(C(F)(F)F)c1)c1cn(CCO)c2ccc(F)cc12 [Example 12, 5-fluoro-1-(2-hydroxyethyl)-N-[2-(trifluoromethyl)pyridin-4-yl]-1H-indole-3-carboxamide] | 257% | I | –
12 | CCn1cc(C(=O)Nc2ccnc(C(F)(F)F)n2)c2cc(F)ccc21 [Example 4, 1-ethyl-5-fluoro-N-[2-(trifluoromethyl)pyrimidin-4-yl]-1H-indole-3-carboxamide] | 30% | I | –
